Where two headings read alike, the source gives them in different places. Peptide text beside a SMILES is read from it. * marks the point of attachment. C16 diacid = O=C(O)CCCCCCCCCCCCCCC(=O)*
Tests used:
human GLP‐1R = human GLP‐1R (Homo sapiens, UniProt P43220); assay: cAMP accumulation, inhibition of GLP‐1‐mediated response (selectivity); settings: for inhibition at 1 µM: COS-7, read-out: Inhibition of GLP‐1‐mediated cAMP response at the human GLP‐1R
human GLP‐2R [1] = target: T1, human GLP‐2R (Homo sapiens, UniProt O95838); assay: cAMP accumulation, inhibition of GLP‐2‐induced activation; settings: for Inhibition of GLP‐2‐induced cAMP at the human GLP‐2R: at 1 μM peptide (highest tested concentration), COS‐7 cells
T1 sequence (O95838 1-553): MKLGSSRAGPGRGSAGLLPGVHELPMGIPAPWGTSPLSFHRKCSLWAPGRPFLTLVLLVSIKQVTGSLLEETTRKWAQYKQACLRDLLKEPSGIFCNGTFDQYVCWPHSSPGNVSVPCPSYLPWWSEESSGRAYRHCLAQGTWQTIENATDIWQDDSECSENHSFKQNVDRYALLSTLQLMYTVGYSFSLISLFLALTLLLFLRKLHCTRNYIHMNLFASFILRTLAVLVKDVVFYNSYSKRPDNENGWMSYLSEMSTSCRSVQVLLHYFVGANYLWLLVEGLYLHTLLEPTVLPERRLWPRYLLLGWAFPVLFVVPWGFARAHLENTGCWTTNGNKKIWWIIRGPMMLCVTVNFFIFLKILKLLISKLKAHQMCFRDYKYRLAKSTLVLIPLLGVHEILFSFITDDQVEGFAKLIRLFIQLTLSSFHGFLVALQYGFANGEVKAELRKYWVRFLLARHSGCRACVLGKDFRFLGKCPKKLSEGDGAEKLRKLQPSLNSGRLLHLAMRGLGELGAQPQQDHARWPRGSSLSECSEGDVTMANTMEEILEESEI

human GLP‐2R [2] = target: T1, human GLP‐2R; assay: cAMP accumulation, agonism (HitHunter cAMP assay); settings: for Emax: COS-7, read-out: cAMP activation Emax ± SEM
human GLP‐2R [3] = target: T1, human GLP‐2R; assay: Schild plot analysis of cAMP activation curve of GLP‐2; type: cell-based; parameters: host or cells: COS-7 (transient, calcium phosphate); settings: COS‐7 cells, n = 5 in duplicate, read-out: Ki from Schild plot (pA2) (converted)
Protocol: Statistical significance was accepted at P < 0.05.
We used a Schild plot approach, where we examined their ability to right‐shift the cAMP activation curve of native GLP‐2 (Figure 4a–d). For GLP‐2(2‐33), GLP‐(3‐33) and GLP‐2(4‐33), all having intrinsic activity, the Schild plot analysis was based on an equieffective DR (the concentrations at 60% of Emax). For GLP‐2(3‐33)[D3A], with no intrinsic activity, the Schild plot analysis was conducted based on the shift in the EC50 values for GLP‐2 with and without GLP‐2(3‐33)[D3A] as previously described (Sparre‐Ulrich et al., [2017]).

human GLP‐2R [4] = target: T1, human GLP‐2R; assay: cell-based; settings: SEM

Sequence of human GLP‐1R (P43220 24-463): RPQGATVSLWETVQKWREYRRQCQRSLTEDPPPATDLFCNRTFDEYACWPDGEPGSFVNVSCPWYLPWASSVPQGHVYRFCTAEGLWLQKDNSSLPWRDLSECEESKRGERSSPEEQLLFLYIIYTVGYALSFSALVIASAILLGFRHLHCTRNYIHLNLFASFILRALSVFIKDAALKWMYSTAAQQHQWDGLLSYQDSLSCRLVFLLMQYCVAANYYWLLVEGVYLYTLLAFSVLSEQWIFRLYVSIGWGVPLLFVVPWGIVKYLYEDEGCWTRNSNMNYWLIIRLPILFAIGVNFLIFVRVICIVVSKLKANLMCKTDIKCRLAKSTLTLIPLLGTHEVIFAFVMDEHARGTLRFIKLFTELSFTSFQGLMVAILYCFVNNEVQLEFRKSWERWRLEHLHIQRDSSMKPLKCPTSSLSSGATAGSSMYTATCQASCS

IC50 (human GLP‐1R) [nM]	inhibition at 1 µM (human GLP‐1R) [%]	IC50 (human GLP‐2R [1]) [nM]	Inhibition of GLP‐2‐induced cAMP at the human GLP‐2R (human GLP‐2R [1]) [%]	Emax (human GLP‐2R [2]) [%]	Ki (human GLP‐2R [3]) [nM]	EC50 (human GLP‐2R [2]) [nM]	Emax (human GLP‐2R [2]; SEM) [%]	IC50 (human GLP‐2R [4]) [nM]	IC50 (human GLP‐2R [1]; SEM) [nM]	EC50 (human GLP‐2R [2]; SEM) [nM]	Compound
40	67	12.3	93	–	–	–	–	–	–	–	CC[C@H](C)[C@H](NC(=O)[C@H](Cc1ccccc1)NC(=O)[C@H](CC(=O)O)NC(=O)[C@H](CCCNC(=N)N)NC(=O)[C@H](C)NC(=O)[C@H](C)NC(=O)[C@H](CC(C)C)NC(=O)[C@H](CC(N)=O)NC(=O)[C@H](CC(=O)O)NC(=O)[C@H](CC(C)C)NC(=O)[C@@H](NC(=O)[C@@H](NC(=O)[C@H](CC(N)=O)NC(=O)[C@H](CCSC)NC(=O)[C@H](CCC(=O)O)NC(=O)[C@H](CC(=O)O)NC(=O)[C@H](CO)NC(=O)[C@H](Cc1ccccc1)NC(=O)[C@H](CO)NC(=O)CCCCCCCCCCCCCCC(=O)O)[C@@H](C)O)[C@@H](C)CC)C(=O)N[C@@H](CC(N)=O)C(=O)N[C@@H](Cc1c[nH]c2ccccc12)C(=O)N[C@@H](CC(C)C)C(=O)N[C@H](C(=O)N[C@@H](CCC(N)=O)C(=O)N[C@H](C(=O)N[C@@H](CCCCN)C(=O)N[C@H](C(=O)N[C@H](C(=O)N[C@@H](CC(=O)O)C(=O)O)[C@@H](C)O)[C@@H](C)CC)[C@@H](C)O)[C@@H](C)CC [GLP‐2(5‐33)(C16‐diacid/5)] ({C16 diacid}-SFSDEMNTILDNLAARDFINWLIQTKITD-OH)
–	–	–	–	–	6.3	158	17 ± 2.6	6.31	79.4	–	CC[C@H](C)[C@H](NC(=O)[C@H](Cc1ccccc1)NC(=O)[C@H](CC(=O)O)NC(=O)[C@H](CCCNC(=N)N)NC(=O)[C@H](C)NC(=O)[C@H](C)NC(=O)[C@H](CC(C)C)NC(=O)[C@H](CC(N)=O)NC(=O)[C@H](CC(=O)O)NC(=O)[C@H](CC(C)C)NC(=O)[C@@H](NC(=O)[C@@H](NC(=O)[C@H](CC(N)=O)NC(=O)[C@H](CCSC)NC(=O)[C@H](CCC(=O)O)NC(=O)[C@H](CC(=O)O)NC(=O)[C@H](CO)NC(=O)[C@H](Cc1ccccc1)NC(=O)[C@H](CO)NC(=O)CN)[C@@H](C)O)[C@@H](C)CC)C(=O)N[C@@H](CC(N)=O)C(=O)N[C@@H](Cc1c[nH]c2ccccc12)C(=O)N[C@@H](CC(C)C)C(=O)N[C@H](C(=O)N[C@@H](CCC(N)=O)C(=O)N[C@H](C(=O)N[C@@H](CCCCN)C(=O)N[C@H](C(=O)N[C@H](C(=O)N[C@@H](CC(=O)O)C(=O)O)[C@@H](C)O)[C@@H](C)CC)[C@@H](C)O)[C@@H](C)CC [GLP‐2(4‐33)] (H-GSFSDEMNTILDNLAARDFINWLIQTKITD-OH)
–	30 to 38	–	–	–	–	–	21 ± 2.2	–	–	–	CC[C@H](C)[C@H](NC(=O)[C@H](Cc1ccccc1)NC(=O)[C@H](CC(=O)O)NC(=O)[C@H](CCCNC(=N)N)NC(=O)[C@H](C)NC(=O)[C@H](C)NC(=O)[C@H](CC(C)C)NC(=O)[C@H](CC(N)=O)NC(=O)[C@H](CC(=O)O)NC(=O)[C@H](CC(C)C)NC(=O)[C@@H](NC(=O)[C@@H](NC(=O)[C@H](CC(N)=O)NC(=O)[C@H](CCSC)NC(=O)[C@H](CCC(=O)O)NC(=O)[C@H](CC(=O)O)NC(=O)[C@H](CO)NC(=O)[C@H](Cc1ccccc1)NC(=O)[C@H](CO)NC(=O)CNC(=O)[C@@H](N)CC(=O)O)[C@@H](C)O)[C@@H](C)CC)C(=O)N[C@@H](CC(N)=O)C(=O)N[C@@H](Cc1c[nH]c2ccccc12)C(=O)N[C@@H](CC(C)C)C(=O)N[C@H](C(=O)N[C@@H](CCC(N)=O)C(=O)N[C@H](C(=O)N[C@@H](CCCCN)C(=O)N[C@H](C(=O)N[C@H](C(=O)N[C@@H](CC(=O)O)C(=O)O)[C@@H](C)O)[C@@H](C)CC)[C@@H](C)O)[C@@H](C)CC [GLP‐2(3‐33)] (H-DGSFSDEMNTILDNLAARDFINWLIQTKITD-OH)

Second part, the compound before the results:

Compound	IC50 (human GLP‐1R) [nM]	inhibition at 1 µM (human GLP‐1R) [%]	IC50 (human GLP‐2R [1]) [nM]	Inhibition of GLP‐2‐induced cAMP at the human GLP‐2R (human GLP‐2R [1]) [%]	Emax (human GLP‐2R [2]) [%]	Ki (human GLP‐2R [3]) [nM]	EC50 (human GLP‐2R [2]) [nM]	Emax (human GLP‐2R [2]; SEM) [%]	IC50 (human GLP‐2R [4]) [nM]	IC50 (human GLP‐2R [1]; SEM) [nM]	EC50 (human GLP‐2R [2]; SEM) [nM]
CC[C@H](C)[C@H](NC(=O)[C@H](Cc1ccccc1)NC(=O)[C@H](CC(=O)O)NC(=O)[C@H](CCCNC(=N)N)NC(=O)[C@H](C)NC(=O)[C@H](C)NC(=O)[C@H](CC(C)C)NC(=O)[C@H](CC(N)=O)NC(=O)[C@H](CC(=O)O)NC(=O)[C@H](CC(C)C)NC(=O)[C@@H](NC(=O)[C@@H](NC(=O)[C@H](CC(N)=O)NC(=O)[C@H](CCSC)NC(=O)[C@H](CCC(=O)O)NC(=O)[C@H](CC(=O)O)NC(=O)[C@H](CO)NC(=O)[C@H](Cc1ccccc1)NC(=O)[C@H](CO)NC(=O)CNC(=O)[C@H](CC(=O)O)NC(=O)CCCCCCCCCCCCCCC(=O)O)[C@@H](C)O)[C@@H](C)CC)C(=O)N[C@@H](CC(N)=O)C(=O)N[C@@H](Cc1c[nH]c2ccccc12)C(=O)N[C@@H](CC(C)C)C(=O)N[C@H](C(=O)N[C@@H](CCC(N)=O)C(=O)N[C@H](C(=O)N[C@@H](CCCCN)C(=O)N[C@H](C(=O)N[C@H](C(=O)N[C@@H](CC(=O)O)C(=O)O)[C@@H](C)O)[C@@H](C)CC)[C@@H](C)O)[C@@H](C)CC [GLP‐2(3‐33)(C16‐diacid/3)] ({C16 diacid}-DGSFSDEMNTILDNLAARDFINWLIQTKITD-OH)	50	91	7.9	87	25	–	–	–	–	–	–
CC[C@H](C)[C@H](NC(=O)[C@H](Cc1ccccc1)NC(=O)[C@H](CC(=O)O)NC(=O)[C@H](CCCNC(=N)N)NC(=O)[C@H](C)NC(=O)[C@H](C)NC(=O)[C@H](CC(C)C)NC(=O)[C@H](CC(N)=O)NC(=O)[C@H](CC(=O)O)NC(=O)[C@H](CC(C)C)NC(=O)[C@@H](NC(=O)[C@@H](NC(=O)[C@H](CC(N)=O)NC(=O)[C@H](CCSC)NC(=O)[C@H](CCC(=O)O)NC(=O)[C@H](CC(=O)O)NC(=O)[C@H](CO)NC(=O)[C@H](Cc1ccccc1)NC(=O)[C@H](CO)NC(=O)CNC(=O)[C@H](C)N)[C@@H](C)O)[C@@H](C)CC)C(=O)N[C@@H](CC(N)=O)C(=O)N[C@@H](Cc1c[nH]c2ccccc12)C(=O)N[C@@H](CC(C)C)C(=O)N[C@H](C(=O)N[C@@H](CCC(N)=O)C(=O)N[C@H](C(=O)N[C@@H](CCCCN)C(=O)N[C@H](C(=O)N[C@H](C(=O)N[C@@H](CC(=O)O)C(=O)O)[C@@H](C)O)[C@@H](C)CC)[C@@H](C)O)[C@@H](C)CC [GLP‐2(3‐33)[D3A]] (H-AGSFSDEMNTILDNLAARDFINWLIQTKITD-OH)	–	–	162	–	–	40	–	–	–	–	–
CC[C@H](C)[C@H](NC(=O)[C@H](Cc1ccccc1)NC(=O)[C@H](CC(=O)O)NC(=O)[C@H](CCCNC(=N)N)NC(=O)[C@H](C)NC(=O)[C@H](C)NC(=O)[C@H](CC(C)C)NC(=O)[C@H](CC(N)=O)NC(=O)[C@H](CC(=O)O)NC(=O)[C@H](CC(C)C)NC(=O)[C@@H](NC(=O)[C@@H](NC(=O)[C@H](CC(N)=O)NC(=O)[C@H](CCSC)NC(=O)[C@H](CCC(=O)O)NC(=O)[C@H](CC(=O)O)NC(=O)[C@H](CO)NC(=O)[C@H](Cc1ccccc1)NC(=O)[C@H](CO)NC(=O)CNC(=O)[C@H](CC(=O)O)NC(=O)[C@H](C)N)[C@@H](C)O)[C@@H](C)CC)C(=O)N[C@@H](CC(N)=O)C(=O)N[C@@H](Cc1c[nH]c2ccccc12)C(=O)N[C@@H](CC(C)C)C(=O)N[C@H](C(=O)N[C@@H](CCC(N)=O)C(=O)N[C@H](C(=O)N[C@@H](CCCCN)C(=O)N[C@H](C(=O)N[C@H](C(=O)N[C@@H](CC(=O)O)C(=O)O)[C@@H](C)O)[C@@H](C)CC)[C@@H](C)O)[C@@H](C)CC [GLP‐2(2‐33)] (H-ADGSFSDEMNTILDNLAARDFINWLIQTKITD-OH)	–	30 to 38	174	–	–	40	–	20 ± 3.2	7.94	–	7.94
CC[C@H](C)[C@H](NC(=O)[C@H](Cc1ccccc1)NC(=O)[C@H](CC(=O)O)NC(=O)[C@H](CCCN=C(N)N)NC(=O)[C@H](C)NC(=O)[C@H](C)NC(=O)[C@H](CC(C)C)NC(=O)[C@H](CC(N)=O)NC(=O)[C@H](CC(=O)O)NC(=O)[C@H](CC(C)C)NC(=O)[C@@H](NC(=O)[C@@H](NC(=O)[C@H](CC(N)=O)NC(=O)[C@H](CCSC)NC(=O)[C@H](CCC(=O)O)NC(=O)[C@H](CC(=O)O)NC(=O)[C@H](CO)NC(=O)[C@H](Cc1ccccc1)NC(=O)[C@H](CO)NC(=O)CNC(=O)[C@@H](N)CC(=O)O)[C@@H](C)O)[C@@H](C)CC)C(=O)N[C@@H](CC(N)=O)C(=O)N[C@@H](Cc1c[nH]c2ccccc12)C(=O)N[C@@H](CC(C)C)C(=O)N[C@H](C(=O)N[C@@H](CCC(N)=O)C(=O)N[C@H](C(=O)N[C@@H](CCCCN)C(=O)N[C@H](C(=O)N[C@H](C(=O)N[C@@H](CC(=O)O)C(=O)O)[C@@H](C)O)[C@@H](C)CC)[C@@H](C)O)[C@@H](C)CC [GLP‐2(3‐33)] (H-DGSFSDEMNTILDNLAARDFINWLIQTKITD-OH)	–	–	204	–	–	126	–	–	7.94	–	25.1

Source: paper PMC9541843, “N‐terminal alterations turn the gut hormone GLP‐2 into an antagonist with gradual loss of GLP‐2 receptor selectivity towards more GLP‐1 receptor interaction” (British Journal of Pharmacology, 2022)
